# Assay results: patent US7741493B2, “Heterocyclic compounds as P2X7 ion channel blockers” (Aventis Pharmaceuticals Inc., priority 2003, dated 2010)
# Structures can show the parent of a compound that is named as a salt.
# Target: T1, P2X7 (Homo sapiens, UniProt Q99572)
# T1 sequence (Q99572 1-595): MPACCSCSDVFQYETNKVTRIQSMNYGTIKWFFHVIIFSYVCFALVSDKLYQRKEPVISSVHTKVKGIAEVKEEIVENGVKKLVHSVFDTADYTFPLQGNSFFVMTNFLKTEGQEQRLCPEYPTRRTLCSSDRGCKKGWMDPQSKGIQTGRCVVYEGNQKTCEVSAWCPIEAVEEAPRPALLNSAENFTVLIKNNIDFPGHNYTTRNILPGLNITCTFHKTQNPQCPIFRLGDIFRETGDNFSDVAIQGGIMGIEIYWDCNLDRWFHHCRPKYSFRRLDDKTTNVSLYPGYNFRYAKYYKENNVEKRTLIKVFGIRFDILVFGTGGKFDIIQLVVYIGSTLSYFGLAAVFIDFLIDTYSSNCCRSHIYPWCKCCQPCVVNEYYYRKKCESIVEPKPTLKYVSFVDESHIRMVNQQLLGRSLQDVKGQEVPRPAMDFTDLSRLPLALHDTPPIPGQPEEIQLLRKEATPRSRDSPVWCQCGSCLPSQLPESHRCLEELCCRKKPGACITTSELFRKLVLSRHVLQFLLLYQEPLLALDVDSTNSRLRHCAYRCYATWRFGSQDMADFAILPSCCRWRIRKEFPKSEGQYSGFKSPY
# Assay: YO-PRO-1 dye uptake assay in U373 cells stably expressing P2X7
# Assay type: cell-based
# Parameters: The complete open reading frame of human P2X7 was amplified from Incyte clone 148057; expressed in transfected cells
# Details: dye uptake through P2X7, U373 cells, 300 μM BzATP, 5 μM YO-PRO-1, test compounds 30 nM to 3 μM; read-out: IC50
# Procedure: Following a 24-hr exposure to DNA, cells were trypsinized and re-seeded at low density in the presence of […] G418. After incubation for 2 weeks, isolated clones were selected with cloning cylinders and replated in […] G418. Cell clones were then expanded. Clones were screened for P2X7 by applying ATP and recording the resultant current using patch clamp electrophysiology.
# U373 cells stably expressing P2X7 were used to screen drugs via a dye uptake assay. Cells were plated overnight on collagen coated 96-well plates at a density of 35,000 cells per well. The following day, culture media was replaced with Mg^++ and Ca^++-free Hank's balanced salt solution and various concentrations of test compounds ranging from 30 nM to 3 μM. Cells were then allowed to incubate with test compounds at 37° C. for 20 minutes. Following this incubation period YO-PRO-1 dye (Molecular Probes, Eugene, Oreg., final concentration 5 μM) and 2′-& 3′-O-(4-Benzolybenzoyl)-Adenosine 5′-triphosphate (Sigma Chemical, St Louis, Mo., final concentration 300 μM) were added to the cells sequentially. Cells were then incubated at 37° C. for 1.5 hours. […] Fluorescence in the presence of test substances was compared to that in the absence of test substances (control).
row,Structure (SMILES),IC50 [nM]
1,"Fc1cccc([C@H]2NC(Cc3ccc(F)cc3F)=N[C@H]2c2cccc(F)c2)c1 [2-(2,4-Difluorobenzyl)-cis-4,5-bis-(3-fluorophenyl)-4,5-dihydro-1H-imidazole trifluoroacetate]",409
2,"c1ccc(CSC2=N[C@@H](c3ccccc3)[C@@H](c3ccccc3)N2)cc1 [cis-4,5-diphenyl-2-benzylthio-4,5-dihydro-1H-imidazole]",214
3,"c1ccc(C2N=C(C3Cc4ccccc4C3)NC2c2ccccc2)cc1 (stereo not shown) [2-indan-2-yl-4,5-diphenyl-4,5-dihydro-1H-imidazole trifluoroacetate]",50
4,"Cc1cccc([C@H]2NC(NCc3ccccc3)=N[C@H]2c2cccc(C)c2)c1 [[cis-4,5-bis-(3-Methylphenyl)-4,5-dihydro-1H-imidazol-2-yl]-benzylamine hydrochloride]",157
5,"c1ccc(CNC2=N[C@@H](c3ccccc3)[C@@H](c3ccccc3)N2)cc1 [cis-4,5-diphenyl-2-benzylamino-4,5-dihydro-1H-imidazole]",135
6,Cc1ccc(CC2=N[C@@H](c3ccccc3)[C@@H](c3ccccc3)N2)cc1F [trifluoroacetate],178
7,CC(C)(C1=N[C@@H](c2ccccc2)[C@@H](c2ccccc2)N1)c1ccc(Cl)cc1,537
8,"CN(Cc1ccccc1)C1=N[C@@H](c2ccccc2)[C@@H](c2ccccc2)N1 [(cis-4,5-Diphenyl-4,5-dihydro-1H-imidazol-2-yl)-N-methylbenzylamine hydrochloride]",147
9,"Fc1ccc(CNC2=N[C@@H](c3ccccc3F)[C@@H](c3ccccc3F)N2)cc1 [(cis-4,5-bis-(2-Fluorophenyl)-4,5-dihydro-1H-imidazol-2-yl)-(4-fluorobenzyl)amine hydrochloride]",390
10,CC(C1=N[C@@H](c2ccccc2)[C@@H](c2ccccc2)N1)c1ccc(Cl)cc1 (relative stereo) [trifluoroacetate],423
11,C[C@@]1(c2cccc(F)c2)N=C(NCc2ccc(F)cc2)N[C@@H]1c1cccc(F)c1,37

# More lines, in order of falling IC50, values ahead:
row,IC50 [nM],Structure (SMILES)
1,930,"Fc1cccc(CC2=N[C@@H](c3ccccc3)[C@@H](c3ccccc3)N2)c1F [2-(2,3-Difluorobenzyl)-cis-4,5-diphenyl-4,5-dihydro-1H-imidazole trifluoroacetate]"
2,828,"Fc1ccc(CSC2=N[C@@H](c3ccccc3)[C@@H](c3ccccc3)N2)c(Cl)c1 [2-[(2-Chloro-4-fluorobenzyl)thio]-cis-4,5-diphenyl-4,5-dihydro-1H-imidazole hydrochloride]"
3,531,"Fc1ccccc1[C@H]1NC(NCc2ccccc2)=N[C@H]1c1ccccc1F [(cis-4,5-bis-(2-Fluorophenyl)-4,5-dihydro-1H-imidazol-2-yl)-benzylamine hydrochloride]"
4,218,"Fc1ccc(CCC2=N[C@@H](c3ccccc3)[C@@H](c3ccccc3)N2)cc1 [2-[2-(4-Fluorophenyl)ethyl]-cis-4,5-diphenyl-4,5-dihydro-1H-imidazole trifluoroacetate]"
5,160,"CC(OCC1=N[C@@](C)(c2ccccc2)[C@@H](c2ccccc2)N1)C1CCCC1 (relative stereo) [2-[(1-Cyclopentyl-1-ethoxy)methyl]-cis-4,5-diphenyl-4-methyl-4,5-dihydro-1H-imidazole hydrochloride]"
6,118,"Cc1cccc([C@H]2NC(NCc3ccc(F)c(F)c3)=N[C@H]2c2cccc(C)c2)c1 [[cis-4,5-bis-(3-Methylphenyl)-4,5-dihydro-1H-imidazol-2-yl]-(3,4-difluorobenzyl)-amine hydrochloride]"
7,71,"Fc1cccc([C@H]2NC(NCc3ccc(F)c(F)c3)=N[C@H]2c2cccc(F)c2)c1 [[cis-4,5-bis-(3-Fluorophenyl)-4,5-dihydro-1H-imidazol-2-yl]-(3,4-difluorobenzyl)-amine hydrochloride]"
8,34,"Clc1cccc(CC2=N[C@@H](c3ccccc3)[C@@H](c3ccccc3)N2)c1 [cis-4,5-diphenyl-2-(3-chlorobenzyl)-4,5-dihydro-1H-imidazole]"
